As usually defined, the IC50 is the midpoint of a concentration-inhibition curve.

A short description of the assay: Inhibition of melanogenesis in theophylline-stimulated mouse B16-4A5 cells assessed as reduction in melanin level incubated for 72 hrs. Type of assay: functional, cell-based. Conditions: B16-4A5, 72 h.

Take `OC[C@H]1O[C@H](Oc2ccc(O)cc2)[C@H](O)[C@@H](O)[C@@H]1O`: the IC50 was 611 µM.
Regarding `C=CC(C)(C)c1[nH]c2c(CC=C(C)C)cc(CC=C(C)C)cc2c1C[C@@H]1NC(=O)[C@H](C)NC1=O` [ECHINULIN], the IC50 was 68 µM.
